# Where a SMILES comes first, the peptide text is derived from it. [ ]: non-standard residue; d: D form. Tic(7-OH) = O=C(O)[C@@H]1Cc2ccc(O)cc2CN1; Pro(3S-OH) = O=C(O)[C@H]1NCC[C@@H]1O; Dap(CONH2) = NC(=O)NC[C@H](N)C(=O)O; Cha = N[C@@H](CC1CCCCC1)C(=O)O; Tle = CC(C)(C)[C@H](N)C(=O)O; Pip = O=C(O)[C@@H]1CCCCN1; dDab = NCC[C@@H](N)C(=O)O; Orn = NCCC[C@H](N)C(=O)O; Dab = NCC[C@H](N)C(=O)O; Nva = CCC[C@H](N)C(=O)O; Dap = NC[C@H](N)C(=O)O
# System: human red blood cells (hRBC)
# Experiment: Hemolysis of human red blood cells
# Format: cell-based
# Conditions: red cells of human, 1 h, 100
# Outline: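 Washed fresh human erythrocytes (20% v/v, about 0.9×10^9 cells/ml final) incubated with peptide at 100 μg/ml for 1 h at 37° C with shaking. Supernatant OD540 read; hemolysis expressed relative to 2.5% Triton X-100 (100%) and PBS with 0.001% acetic acid (0%).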
row,Structure (SMILES),Hemolysis at 100 μg/ml [%]
1,CC(C)[C@@H]1NC(=O)[C@@H]2CCCN2C(=O)[C@H]2CCCN2C(=O)[C@H](CO)NC(=O)[C@H](C)NC(=O)[C@H](C(C)(C)C)NC(=O)[C@H](CCN)NC(=O)[C@H](Cc2c[nH]c3ccccc23)NC(=O)[C@H](CCN)NC(=O)[C@@H](CCN)NC(=O)[C@H](CCCN)NC(=O)[C@H](CCN)NC(=O)[C@H](Cc2ccc(O)cc2)NC(=O)[C@H](C)NC1=O [compound 46] (cyclo(VAY[Dab][Orn][dDab][Dab]W[Dab][Tle]AS[dP]P)),1
2,CCC[C@@H]1NC(=O)[C@@H]2CCCN2C(=O)[C@H]2CCCN2C(=O)[C@H](CO)NC(=O)[C@H](C)NC(=O)[C@H](C(C)(C)C)NC(=O)[C@H](CCN)NC(=O)[C@H](Cc2c[nH]c3ccccc23)NC(=O)[C@H](CCN)NC(=O)[C@@H](CCN)NC(=O)[C@H](CCCN)NC(=O)[C@H](CCN)NC(=O)[C@H](Cc2ccc(O)cc2)NC(=O)[C@H](CO)NC1=O [compound 47] (cyclo([Nva]SY[Dab][Orn][dDab][Dab]W[Dab][Tle]AS[dP]P)),1
3,CCC[C@@H]1NC(=O)[C@@H]2CCCN2C(=O)[C@H]2CCCN2C(=O)[C@H](CO)NC(=O)[C@H](C)NC(=O)[C@H](C(C)(C)C)NC(=O)[C@H](CCN)NC(=O)[C@H](Cc2c[nH]c3ccccc23)NC(=O)[C@H](CCN)NC(=O)[C@@H](CCN)NC(=O)[C@H](CCCN)NC(=O)[C@H](CCN)NC(=O)[C@H](Cc2ccc(O)cc2)NC(=O)[C@H](C)NC1=O [compound 48] (cyclo([Nva]AY[Dab][Orn][dDab][Dab]W[Dab][Tle]AS[dP]P)),1
4,CC(C)[C@@H]1NC(=O)[C@@H]2CCCN2C(=O)[C@H]2CCCN2C(=O)[C@H](CO)NC(=O)[C@H](C)NC(=O)[C@H](C(C)(C)C)NC(=O)[C@H](CCN)NC(=O)[C@H](Cc2c[nH]c3ccccc23)NC(=O)[C@H](CCN)NC(=O)[C@H](CCN)NC(=O)[C@H](CCCN)NC(=O)[C@H](CCN)NC(=O)[C@H](Cc2ccc(O)cc2)NC(=O)[C@H](CO)NC1=O [compound 49] (cyclo(VSY[Dab][Orn][Dab][Dab]W[Dab][Tle]AS[dP]P)),1
5,CC(C)[C@@H]1NC(=O)[C@@H]2CCCN2C(=O)[C@H]2CCCN2C(=O)[C@H](CO)NC(=O)[C@H](C)NC(=O)[C@H](C(C)(C)C)NC(=O)[C@H](CCN)NC(=O)[C@H](Cc2c[nH]c3ccccc23)NC(=O)[C@H](CCN)NC(=O)[C@@H](CCN)NC(=O)[C@H](CCCN)NC(=O)[C@H](CCN)NC(=O)[C@H](CC2CCCCC2)NC(=O)[C@H](CO)NC1=O [compound 50] (cyclo(VS[Cha][Dab][Orn][dDab][Dab]W[Dab][Tle]AS[dP]P)),4
6,CC(C)[C@@H]1NC(=O)[C@@H]2CCCN2C(=O)[C@H]2CCCN2C(=O)[C@H](CO)NC(=O)[C@H](C)NC(=O)[C@H](C(C)(C)C)NC(=O)[C@H](CCN)NC(=O)[C@H](Cc2c[nH]c3ccccc23)NC(=O)[C@H](CCN)NC(=O)[C@@H](CCN)NC(=O)[C@H](CCCN)NC(=O)[C@H](CCN)NC(=O)[C@H](CC2CCCCC2)NC(=O)[C@H](C)NC1=O [compound 51] (cyclo(VA[Cha][Dab][Orn][dDab][Dab]W[Dab][Tle]AS[dP]P)),1
7,CC(C)[C@@H]1NC(=O)[C@@H]2[C@@H](O)CCN2C(=O)[C@H]2CCCN2C(=O)[C@H](CO)NC(=O)[C@H](C)NC(=O)[C@H](C(C)(C)C)NC(=O)[C@H](CCN)NC(=O)[C@H](Cc2c[nH]c3ccccc23)NC(=O)[C@H](CCN)NC(=O)[C@@H](CCN)NC(=O)[C@H](CCCN)NC(=O)[C@H](CCN)NC(=O)[C@H](Cc2ccc(O)cc2)NC(=O)[C@H](CO)NC1=O [compound 56] (cyclo(AS[dP][Pro(3S-OH)]VSY[Dab][Orn][dDab][Dab]W[Dab][Tle])),1
8,CC(C)C[C@@H]1NC(=O)[C@@H]2[C@@H](O)CCN2C(=O)[C@H]2CCCN2C(=O)[C@H](CO)NC(=O)[C@H](C)NC(=O)[C@H](C(C)(C)C)NC(=O)[C@H](CCN)NC(=O)[C@H](Cc2c[nH]c3ccccc23)NC(=O)[C@H](CCN)NC(=O)[C@@H](CCN)NC(=O)[C@H](CCCN)NC(=O)[C@H](CCN)NC(=O)[C@H](Cc2ccc(O)cc2)NC(=O)[C@H](CO)NC1=O [compound 57] (cyclo(AS[dP][Pro(3S-OH)]LSY[Dab][Orn][dDab][Dab]W[Dab][Tle])),1
9,CC(C)C[C@@H]1NC(=O)[C@@H]2[C@@H](O)CCN2C(=O)[C@H]2CCCN2C(=O)[C@H](CO)NC(=O)[C@H](C)NC(=O)[C@H](C(C)(C)C)NC(=O)[C@H](CCN)NC(=O)[C@H](Cc2c[nH]c3ccccc23)NC(=O)[C@H](CCN)NC(=O)[C@@H](CCN)NC(=O)[C@H](CCCN)NC(=O)[C@H](CCN)NC(=O)[C@H](CC2CCCCC2)NC(=O)[C@H](CO)NC1=O [compound 58] (cyclo(AS[dP][Pro(3S-OH)]LS[Cha][Dab][Orn][dDab][Dab]W[Dab][Tle])),1
10,CC(C)C[C@@H]1NC(=O)[C@@H]2[C@@H](O)CCN2C(=O)[C@H]2CCCN2C(=O)[C@H](CO)NC(=O)[C@H](CNC(N)=O)NC(=O)[C@H](C(C)(C)C)NC(=O)[C@H](CCN)NC(=O)[C@H](Cc2c[nH]c3ccccc23)NC(=O)[C@H](CCN)NC(=O)[C@@H](CCN)NC(=O)[C@H](CCCN)NC(=O)[C@H](CCN)NC(=O)[C@H](CC2CCCCC2)NC(=O)[C@H](CO)NC1=O [compound 59] (cyclo([Cha][Dab][Orn][dDab][Dab]W[Dab][Tle][Dap(CONH2)]S[dP][Pro(3S-OH)]LS)),1
11,CC(C)C[C@@H]1NC(=O)[C@@H]2[C@@H](O)CCN2C(=O)[C@H]2CCCN2C(=O)[C@H](CO)NC(=O)[C@H](CNC(N)=O)NC(=O)[C@H](C(C)(C)C)NC(=O)[C@H](CCN)NC(=O)[C@H](Cc2c[nH]c3ccccc23)NC(=O)[C@H](CCN)NC(=O)[C@@H](CCN)NC(=O)[C@H](CCCN)NC(=O)[C@H](CCN)NC(=O)[C@H](CC2CCCCC2)NC(=O)[C@H](C)NC1=O [compound 60] (cyclo(LA[Cha][Dab][Orn][dDab][Dab]W[Dab][Tle][Dap(CONH2)]S[dP][Pro(3S-OH)])),1
12,C[C@@H]1NC(=O)[C@H](C(C)(C)C)NC(=O)[C@H](CCN)NC(=O)[C@H](Cc2c[nH]c3ccccc23)NC(=O)[C@H](CCN)NC(=O)[C@@H](CCN)NC(=O)[C@H](CCCN)NC(=O)[C@H](CCN)NC(=O)[C@H](CC2CCCCC2)NC(=O)[C@H](CN)NC(=O)[C@H](Cc2c[nH]c3ccccc23)NC(=O)[C@@H]2Cc3ccc(O)cc3CN2C(=O)[C@H]2CCCN2C(=O)[C@H](CO)NC1=O [compound 61] (cyclo(AS[dP][Tic(7-OH)]W[Dap][Cha][Dab][Orn][dDab][Dab]W[Dab][Tle])),2
13,C[C@@H]1NC(=O)[C@H](C(C)(C)C)NC(=O)[C@H](CCN)NC(=O)[C@H](Cc2c[nH]c3ccccc23)NC(=O)[C@H](CCN)NC(=O)[C@@H](CCN)NC(=O)[C@H](CCCN)NC(=O)[C@H](CCN)NC(=O)[C@H](CC2CCCCC2)NC(=O)[C@H](CN)NC(=O)[C@H](Cc2c[nH]c3ccccc23)NC(=O)[C@@H]2CCCCN2C(=O)[C@H]2CCCN2C(=O)[C@H](CO)NC1=O [compound 63] (cyclo(AS[dP][Pip]W[Dap][Cha][Dab][Orn][dDab][Dab]W[Dab][Tle])),3

# Source: patent US9938322B2, “β-hairpin peptidomimetics” (priority 2013, dated 2018)
